Measurements published in patent US20120165403A1, “METHODS OF INHIBITING THE ACTIVITY OF HSP90 AND/OR ARYL HYDROCARBON RECEPTOR” (UNIVERSITY OF ROCHESTER, priority 2004, published 2012).

Columns and labels:
chicken hsp90 = assay: Affinity chromatography on EGCG-conjugated Sepharose, hsp90 point and truncation mutants; assay type: binding
From the text: (§1) Murine AhR and ARNT cDNA (obtained from J. Whitlock and O. Hankinson, respectively) were inserted into pcDNA3 (Invitrogen, Carlsbad, Calif.). Chicken hsp90 constructs (FIG. 5), c90711hsp (wild-type), c90G94D (wild-type point mutant gly94→Asp (Grenert et al., J. Biol. Chem. 272:23843-23850 (1997), which is hereby incorporated by reference in its entirety), c90D92A (wild-type point mutant Asp92→Ala (Sullivan et al., J. Biol. Chem. 268:20373-20379 (1993), which is hereby incorporated by reference in its entirety), c90N221 (wild-type truncation mutant encoding a.a. 221-728 (Sullivan et al., J. Biol. Chem. 268:20373-20379 (1993), which is hereby incorporated by reference in its entirety)), c90N303 (a.a. 303-728) and c90N538 (a.a. 538-728) were kind gifts from Dr. D. Toft (Rochester, Minn.). The C-terminal truncation mutant c900507 (a.a. 1-221) was obtained from Dr. L. Neckers (Rockville, Md.) (Grenert et al., J. Biol. Chem. 272:23843-23850 (1997); Marcu et al., J. Biol. Chem. 275:37181-37186 (2000), which are hereby incorporated by reference in their entirety). Human p23 cDNA was excised from pQE80-p23 (obtained from W. Chan Stockton, Calif.) by sequential digests using the restriction enzymes Sad (3′-end) and BamHI (5′-end) and inserted into the similarly digested pET28a (Novagen, Madison, Wis.). The mouse histidine-tagged XAP2 construct, pET-AIP (Bell et al., J. Biol. Chem. 275:36407-36414 (2000), which is hereby incorporated by reference in its entirety), was a kind gift from Dr. D. Bell (Nottingham, UK). All constructs are in the T7 orientation with the exception of c900507, which is driven by an SP6 promoter.
AhR, ARNT, hsp90 (wild-type, point mutants, and truncation mutants), p23, and XAP2 were generated (separately) by coupled transcription/translation in rabbit reticulocyte lysate (RRL) using the TNT® system according to the manufacturer's protocol (Promega, Madison Wis.). In this system, ^35S-methionine was included in the transcription/translation mix to generate ^35S-labeled protein.
EGCG was conjugated to cyanogen bromide (CNBr)-activated Sepharose (Sigma). […]

AhR/Arnt complex = molecular target: T1, AhR/Arnt complex (Mus musculus, UniProt P30561); assay: AhR/Arnt complex formation by immunoprecipitation in RRL; assay type: biochemical, murine; settings: 200 μm EGCG, with or without 1 nM TCDD, anti-AhR immunoprecipitation
T1 construct: made in house; host or cells: TNT rabbit reticulocyte lysate
T1 sequence (P30561 10-805 limits assumed): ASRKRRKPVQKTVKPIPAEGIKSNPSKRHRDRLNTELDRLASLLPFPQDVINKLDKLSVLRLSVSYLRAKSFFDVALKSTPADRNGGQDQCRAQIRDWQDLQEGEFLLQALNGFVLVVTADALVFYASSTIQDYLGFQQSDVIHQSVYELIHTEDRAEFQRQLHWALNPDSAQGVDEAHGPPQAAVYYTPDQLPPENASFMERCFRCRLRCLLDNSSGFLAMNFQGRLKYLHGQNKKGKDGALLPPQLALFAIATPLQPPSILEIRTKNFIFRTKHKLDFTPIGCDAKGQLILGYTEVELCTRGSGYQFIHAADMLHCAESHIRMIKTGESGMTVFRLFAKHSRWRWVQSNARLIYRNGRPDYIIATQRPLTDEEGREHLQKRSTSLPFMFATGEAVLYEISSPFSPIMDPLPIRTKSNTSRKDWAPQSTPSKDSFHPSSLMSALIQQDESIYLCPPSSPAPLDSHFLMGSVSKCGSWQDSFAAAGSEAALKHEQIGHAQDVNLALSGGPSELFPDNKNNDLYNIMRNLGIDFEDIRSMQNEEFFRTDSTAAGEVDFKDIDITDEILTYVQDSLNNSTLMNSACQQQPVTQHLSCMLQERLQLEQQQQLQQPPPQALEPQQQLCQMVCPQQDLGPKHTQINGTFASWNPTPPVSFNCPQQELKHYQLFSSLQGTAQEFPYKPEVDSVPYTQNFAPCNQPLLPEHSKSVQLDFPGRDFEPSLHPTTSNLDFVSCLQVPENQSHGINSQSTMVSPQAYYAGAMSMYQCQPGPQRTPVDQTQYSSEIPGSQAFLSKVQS
From the text: as §1, with “The mouse histidine-tagged XAP2 construct, pET-AIP (Bell et al., J. Biol. Chem. 275:36407-36414 (2000), which is hereby incorporated by reference in its entirety), was a kind gift from Dr. D. Bell (Nottingham, UK). All constructs are in the T7 orientation with the exception of c900507, which is driven by an SP6 promoter.” left out

## O=C(O[C@@H]1Cc2c(O)cc(O)cc2O[C@@H]1c1cc(O)c(O)c(O)c1)c1cc(O)c(O)c(O)c1 [EGCG, epigallocatechin gallate]
Chicken hsp90; all C-terminal fragments (N221, N303, N538)
  binding of C-terminal hsp90 fragments: bound EGCG
Chicken hsp90; compared with wild type hsp90
  binding of N-terminal point mutants D92A, G94D to EGCG-Sepharose: bound to EGCG-Sepharose as well as or better than the wild type hsp90
Chicken hsp90; fragment containing the GA binding site
  binding of amino-terminal hsp90 fragment C507 to immobilized EGCG: failed to bind to immobilized EGCG
AhR/Arnt complex
  effect on AhR/Arnt complex formation: disrupting AhR/Arnt complex formation
